We go through 30 molecules from US20110039847A1, “AMIDE DERIVATIVES AS SIRTUIN MODULATORS” (Sirtris Pharmaceuticals, Inc, priority 2007, published 2011).

The structures appear in SMILES notation.

The experiment addresses T1, SIRT1 (Homo sapiens, UniProt Q96EB6).
T1 sequence (Q96EB6 1-747): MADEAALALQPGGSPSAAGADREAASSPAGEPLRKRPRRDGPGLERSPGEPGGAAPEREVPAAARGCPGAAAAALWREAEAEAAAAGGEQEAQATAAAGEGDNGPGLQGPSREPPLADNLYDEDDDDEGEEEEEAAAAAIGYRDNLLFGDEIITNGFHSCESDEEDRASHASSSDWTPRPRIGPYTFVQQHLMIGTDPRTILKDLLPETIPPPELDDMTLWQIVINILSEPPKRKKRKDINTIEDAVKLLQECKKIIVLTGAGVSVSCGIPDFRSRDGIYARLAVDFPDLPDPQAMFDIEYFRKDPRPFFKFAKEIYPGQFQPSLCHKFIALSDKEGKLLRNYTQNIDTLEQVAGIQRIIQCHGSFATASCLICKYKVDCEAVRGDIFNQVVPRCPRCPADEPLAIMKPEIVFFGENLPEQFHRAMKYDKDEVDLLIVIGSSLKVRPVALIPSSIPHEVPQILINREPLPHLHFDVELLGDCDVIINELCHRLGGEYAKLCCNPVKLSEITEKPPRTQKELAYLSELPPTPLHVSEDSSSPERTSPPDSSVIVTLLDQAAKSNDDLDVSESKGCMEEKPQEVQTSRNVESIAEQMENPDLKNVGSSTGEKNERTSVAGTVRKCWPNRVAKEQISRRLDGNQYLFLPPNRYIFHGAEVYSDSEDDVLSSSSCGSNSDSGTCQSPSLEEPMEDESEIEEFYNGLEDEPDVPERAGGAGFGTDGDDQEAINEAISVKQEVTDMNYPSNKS
Nature of the experiment: Mass spectrometry based SIRT1 deacetylation (activation) assay. Format: biochemical. The note with it: 0.5 μM peptide substrate, 120 μM βNAD+, 10 nM SIRT1, 25 min at 25° C.; for Emax: 25 min, read-out: % Fold Act. (percent maximum fold activation). An excerpt:
A mass spectrometry based assay was used to identify modulators of SIRT1 activity. The mass spectrometry based assay utilizes a peptide having 20 amino acid residues as follows: Ac-EE-K(biotin)-GQSTSSHSK(Ac)NleSTEG-K(5TMR)-EE-NH2 (SEQ ID NO: 1) wherein K(Ac) is an acetylated lysine residue and Nle is a norleucine. The peptide is labeled with the fluorophore 5TMR (excitation 540 nm/emission 580 nm) at the C-terminus. The sequence of the peptide substrate is based on p53 with several modifications. In addition, the methionine residue naturally present in the sequence was replaced with the norleucine because the methionine may be susceptible to oxidation during synthesis and purification.
The mass spectrometry assay is conducted as follows: 0.5 μM peptide substrate and 120 μM βNAD^+ is incubated with 10 nM SIRT1 for 25 minutes at 25° C. in a reaction buffer (50 mM Tris-acetate pH 8, 137 mM NaCl, 2.7 mM KCl, 1 mM MgCl2, 5 mM DTT, 0.05% BSA). Test compounds may be added to the reaction as described above. […] After the 25 minute incubation with SIRT1, 10 μL of 10% formic acid is added to stop the reaction. Reactions are sealed and frozen for later mass spec analysis. Determination of the mass of the substrate peptide allows for precise determination of the degree of acetylation (i.e. starting material) as compared to deacetylated peptide (product).
A control for inhibition of sirtuin activity is conducted by adding 1 μL of 500 mM nicotinamide as a negative control at the start of the reaction (e.g., permits determination of maximum sirtuin inhibition). A control for activation of sirtuin activity is conducted using 10 nM of sirtuin protein, with 1 μL of DMSO in place of compound, to determine the amount of deacetylation of the substrate at a given timepoint within the linear range of the assay. This timepoint is the same as that used for test compounds and, within the linear range, the endpoint represents a change in velocity.
For the above assay, SIRT1 protein was expressed and purified as follows. […] The protein was expressed by induction with 1 mM IPTG as an N-terminal His-tag fusion protein at 18° C. overnight and harvested at 30,000×g. Cells were lysed with lysozyme in lysis buffer (50 mM Tris-HCl, 2 mM Tris[2-carboxyethyl]phosphine (TCEP), 10 μM ZnCl2, 200 mM NaCl) and further treated with sonication for 10 min for complete lysis. The protein was purified over a Ni-NTA column (Amersham) and fractions containing pure protein were pooled, concentrated and run over a sizing column (Sephadex S200 26/60 global). The peak containing soluble protein was collected and run on an Ion-exchange column (MonoQ). Gradient elution (200 mM-500 mM NaCl) yielded pure protein. This protein was concentrated and dialyzed against dialysis buffer (20 mM Tris-HCl, 2 mM TCEP) overnight. The protein was aliquoted and frozen at −80° C. until further use.

Consider `CNCCN(C)c1cc(C(=O)Nc2ccccc2-c2nncs2)nc(-c2ccccc2)n1` [Compound 40], for which the EC1.5 entry is “A (EC1.5≦1 uM)” and the Emax was not below 300%.
On the same counts, the results for `CN(C)CCN(C)c1cc(C(=O)Nc2ccccc2-c2nnc(-c3ccccc3)s2)nc(-c2ccccc2)n1` [Compound 179] are “C (EC1.5>10 uM)” and 150 to 300%.
On the same counts, the results for `CCN(CCN(C)C)c1cc(C(=O)Nc2ccccc2-c2nnc(SC)s2)nc(-c2ccccc2)n1` [Compound 115] are “A (EC1.5≦1 uM)” and not below 300%.
Consider `CCN(CCOC)c1cc(C(=O)Nc2ccccc2-c2ncc(C(C)(C)C)s2)nc(-c2ccccc2)c1` [Compound 84], for which the EC1.5 entry is “A (EC1.5≦1 uM)” and the Emax is 150 to 300%.
The like results for `O=C(Nc1ccccc1-c1nncs1)c1cc(NC(CO)CO)nc(-c2ccccc2)n1` [Compound 99] were, in that order, “A (EC1.5≦1 uM)” and not below 300%.
Consider `CC(=O)c1ccccc1NC(=O)c1cc(NC2CCN(C)CC2)nc(-c2ccccc2)n1` [Compound 143], for which the EC1.5 entry is on record as “A (EC1.5≦1 uM)” and the Emax was not below 300%.
On the same counts, the results for `O=C(Nc1ccccc1-c1ncc(-c2ccccc2)s1)c1cc(NCCN2CCCCC2)nc(-c2ccccc2)n1` [Compound 17] are “A (EC1.5≦1 uM)” and 150 to 300%.
For `O=C(Nc1ccccc1-c1ncc(-c2ccccc2)s1)c1cc(N2CCNCC2)nc(-c2ccccc2)n1` [Compound 18], the EC1.5 entry is “A (EC1.5≦1 uM)” and the Emax was 150 to 300%.
On the same counts, the results for `CN(C)CCNc1cc(C(=O)Nc2ccccc2C(=O)Nc2ccccn2)nc(-c2ccccc2)n1` [Compound 158, 6-(2-(dimethylamino)ethylamino)-2-phenyl-N-(2-(pyridin-2-ylcarbamoyl)phenyl)pyrimidine-4-carboxamide] are “A (EC1.5≦1 uM)” and 150 to 300%.
With `CCN(CCN(C)C)c1cc(C(=O)Nc2ccccc2-c2nnc(C(=O)NC)s2)nc(-c2ccccc2)n1` [Compound 86], the EC1.5 entry is “A (EC1.5≦1 uM)” and the Emax lay in the range of 150 to 300%.
The like results for `CN(C)CCNc1cc(C(=O)Nc2ccccc2-c2nnc(-c3ccccc3)s2)nc(-c2ccccc2)n1` [Compound 25] were, in that order, “A (EC1.5≦1 uM)” and 150 to 300%.
With `CCN(CCN(C)C)c1cc(C(=O)Nc2ccccc2C(=O)NC2CCCN(C(=O)OC(C)(C)C)C2)nc(-c2ccccc2)n1` (stereo not drawn) [Compound 172, tert-butyl 3-(2-(6-((2-(dimethylamino)ethyl)(ethyl)amino)-2-phenylpyrimidine-4-carboxamido)benzamido)piperidine-1-carboxylate], the EC1.5 result is “B (EC1.5>1 and ≦10 uM)”; the Emax was 150 to 300%.
With `CN(C)CCNc1cc(C(=O)Nc2ccccc2-c2nnc(-c3ccncc3)s2)nc(-c2ccccc2)n1` [Compound 78], the EC1.5 entry is reported as “A (EC1.5≦1 uM)” and the Emax was not below 300%.
For the molecule `CN(C)CCNc1cc(C(=O)Nc2ccccc2-c2c[nH]c(-c3ccccc3)n2)nc(-c2ccccc2)n1` [Compound 15], the EC1.5 entry is reported as “A (EC1.5≦1 uM)” and the Emax was not below 300%.
For the molecule `CN(C)CCN(C)c1cc(C(=O)Nc2ccccc2-c2nnc(-c3ccccc3)s2)nc(-c2ccccc2)c1` [Compound 35], the EC1.5 entry is reported as “A (EC1.5≦1 uM)” and the Emax lay in the range of 150 to 300%.
Take `CC(C)(C)c1cnc(-c2ccccc2NC(=O)c2cc(OC[C@@H](O)CO)cc(-c3ccccc3)n2)s1` [Compound 75]: the EC1.5 result is “B (EC1.5>1 and ≦10 uM)”; the Emax is not below 300%.
`Cc1cnc(-c2ccccc2NC(=O)c2cc(NCCN(C)C)nc(-c3ccccc3)n2)o1` [Compound 23]: the EC1.5 entry was “B (EC1.5>1 and ≦10 uM)”; the Emax is not below 300%.
`O=C(Nc1ccccc1-c1nncs1)c1cc(OCC(O)CO)nc(-c2ccccc2)n1` (stereo not drawn) [Compound 111]: the EC1.5 result is reported as “A (EC1.5≦1 uM)” and the Emax was not below 300%.
As to `CN(C)CCNc1cc(C(=O)Nc2ccccc2C(=O)Nc2cccc(C(N)=O)c2)nc(-c2ccccc2)n1` [Compound 147, N-(2-(3-carbamoylphenylcarbamoyl)phenyl)-6-(2-(dimethylamino)ethylamino)-2-phenylpyrimidine-4-carboxamide], the EC1.5 entry is “A (EC1.5≦1 uM)” and the Emax is not below 300%.
Consider `CN(C)CCNc1cc(C(=O)Nc2ccccc2C(=O)Nc2ccc(C(N)=O)cc2)nc(-c2ccccc2)n1` [Compound 157, N-(2-(4-carbamoylphenylcarbamoyl)phenyl)-6-(2-(dimethylamino)ethylamino)-2-phenylpyrimidine-4-carboxamide], for which the EC1.5 entry is on record as “A (EC1.5≦1 uM)” and the Emax lay within 150 to 300%.
For `NC(=O)c1nnc(-c2ccccc2NC(=O)c2cc(N3CCN4CCC[C@H]4C3)nc(-c3ccccc3)n2)s1` [Compound 69], the EC1.5 result was “A (EC1.5≦1 uM)” and the Emax fell in the range of 150 to 300%.
The like results for `CN(C)CCN(C)c1cc(C(=O)Nc2ccccc2-c2nnc(C3CCC3)s2)nc(-c2ccccc2)n1` [Compound 45] were, in that order, “A (EC1.5≦1 uM)” and 150 to 300%.
On the same counts, the results for `CCN(CCN(C)C)c1cc(C(=O)Nc2ccccc2-c2nnc(C3CCC3)s2)nc(-c2ccccc2)n1` [Compound 51] are “A (EC1.5≦1 uM)” and 150 to 300%.
As to `CN1CCN(c2cc(C(=O)Nc3ccccc3-c3nncs3)nc(-c3ccccc3)n2)CC1=O` [Compound 112], the EC1.5 result was “A (EC1.5≦1 uM)” and the Emax is not below 300%.
`CCN(CCN(C)C)c1cc(C(=O)Nc2ccccc2-c2ncc(-c3ccccc3)o2)nc(-c2ccccc2)c1` [Compound 34]: the EC1.5 result was “A (EC1.5≦1 uM)” and the Emax was not below 300%.
Regarding `CN(C)CCNc1cc(C(=O)Nc2ccccc2-c2ncc(C(C)(C)C)s2)nc(-c2ccccc2)n1` [Compound 37], the EC1.5 entry is “B (EC1.5>1 and ≦10 uM)”; the Emax fell in the range of 150 to 300%.
Regarding `O=C(Nc1ccccc1-c1nnc(N2CCOCC2)s1)c1cc(OC[C@@H](O)CO)nc(-c2ccccc2)n1` [Compound 108], the EC1.5 entry is listed as “A (EC1.5≦1 uM)” and the Emax is not below 300%.
For the molecule `O=C(Nc1ccccc1-c1ncc(-c2ccccc2)s1)c1cc(NCCN2CCCC2)nc(-c2ccccc2)n1` [Compound 19], the EC1.5 result is reported as “A (EC1.5≦1 uM)” and the Emax lay in the range of 150 to 300%.
On the same counts, the results for `CN(C)CCNc1cc(C(=O)Nc2ccccc2C(=O)Nc2ccccc2C(N)=O)nc(-c2ccccc2)n1` [Compound 150, N-(2-(2-carbamoylphenylcarbamoyl)phenyl)-6-(2-(dimethylamino)ethylamino)-2-phenylpyrimidine-4-carboxamide] are “A (EC1.5≦1 uM)” and not below 300%.
For `CCCc1nnc(-c2ccccc2NC(=O)c2cc(NCCN(C)C)nc(-c3ccccc3)n2)s1` [Compound 54], the EC1.5 result was “B (EC1.5>1 and ≦10 uM)”; the Emax fell in the range of 150 to 300%.
